Key:
TNFα = experiment: Lipopolysaccharide (LPS) stimulated whole blood measuring TNFα levels assay; format: cell-based; conditions: LPS 200 ng/ml, 24 hours, read-out: pIC50, TNFα levels in LPS stimulated whole blood (converted)
Method: Activation of monocytic cells by agonists of toll-like receptors such as bacterial lipopolysaccharide (LPS) results in production of key inflammatory mediators including TNFα. Such pathways are widely considered to be central to the pathophysiology of a range of auto-immune and inflammatory disorders.
After further incubation for 24 hours at 37 degrees, 140 ul of PBS are added to each well. The plates are sealed, shaken for 10 minutes and then centrifuged (2500 rpm×10 min). 100 ul of the supernatant are removed and TNFα levels assayed by immunoassay (typically by MesoScale Discovery technology) either immediately or following storage at −20 degrees. Dose response curves for each compound was generated from the data and an IC50 value was calculated.

[1] = test system: Balb/c male mice given a lethal dose of LPS; experiment: In vivo mouse endotoxemia model; conditions: 15 mg/kg LPS i.p., compound 10 mg/kg intravenously ninety minutes later; for Numbers of animals surviving at 4 days (summed across multiple repeat experiments): survivors/total
Excerpt: High doses of Endotoxin (bacterial lipopolysaccharide) administered to animals produce a profound shock syndrome including a strong inflammatory response, dysregulation of cardiovascular function, organ failure and ultimately mortality. This pattern of response is very similar to human sepsis and septic shock, where the body's response to a significant bacterial infection can be similarly life threatening.
To test the compounds for use in the invention groups of eight Balb/c male mice were given a lethal dose of 15 mg/kg LPS by intraperitoneal injection. Ninety minutes later, animals were dosed intravenously with vehicle (20% cyclodextrin 1% ethanol in apyrogen water) or compound (10 mg/kg). The survival of animals was monitored at 4 days.

melting point | SMILES | IC50 (TNFα) | Animals surviving at 4 days, percent [1] | Numbers of animals surviving at 4 days (summed across multiple repeat experiments) [1]
– | CNCc1ccc(-c2ccc3c(c2)[C@H](NC(=O)OC(C)C)C[C@H](C)N3C(C)=O)cc1 [Example 1, 1-methylethyl ((2S,4R)-1-acetyl-2-methyl-6-{4-[(methylamino)methyl]phenyl}-1,2,3,4-tetrahydro-4-quinolinyl)carbamate] | ≤ 1000 nM | – | –
– | COc1cc2c(cc1-c1c(C)noc1C)ncc1[nH]c(=O)n([C@H](C)c3ccccn3)c12 [Example 3, 7-(3,5-dimethyl-4-isoxazolyl)-8-(methoxy)-1-[(1R)-1-(2-pyridinyl)ethyl]-1,3-dihydro-2H-imidazo[4,5-c]quinolin-2-one] | ≤ 1000 nM | (83%) | 55/66
– | COc1cc2c(cc1-c1c(C)noc1C)ncc1nc(C3CCOCC3)n([C@H](C)c3ccccc3)c12 [Example 4, 7-(3,5-dimethyl-4-isoxazolyl)-8-(methoxy)-1-[(1R)-1-phenylethyl]-2-(tetrahydro-2H-pyran-4-yl)-1H-imidazo[4,5-c]quinoline] | ≤ 1000 nM | (38%) | 9/24
– | CC(=O)N1c2ccc(-c3ccc(C(=O)O)cc3)cc2[C@H](Nc2ccc(Cl)cc2)C[C@@H]1C [Example 5, 4-{(2S,4R)-1-acetyl-4-[(4-chlorophenyl)amino]-2-methyl-1,2,3,4-tetrahydro-6-quinolinyl}benzoic acid] | ≤ 1000 nM | (58%) | 14/24
> 260 °C | Cc1nnc2c(NC(N)=O)cc3cc(-c4ccc(CN5CCCCC5)cc4)ccc3n12 [Example 6, N-{1-methyl-7-[4-(1-piperidinylmethyl)phenyl][1,2,4]triazolo[4,3-a]quinolin-4-yl}urea] | ≤ 1000 nM | – | –

Reference: US20150133436A1, “Bromodomain Inhibitors For Treating Autoimmune And Inflammatory Diseases” (GlaxoSmithKline LLC, priority 2009, published 2015)
